Measured values as given in the NIST ThermoML archive (doi:10.1016/j.jct.2016.10.009).
± gives the expanded uncertainty stated by the source.

Assay: xn = mol fraction of the nth substance listed
Details: Liquid, Vibrating tube method, x1 = 1

CCC(C)O (stereo not given) [butan-2-ol] + CC(C)OC(C)C
mass density [kg/m3]
Details | 333.15 K | 353.19 K | 373.24 K | 393.28 K
100 kPa | – | 750.3 ± 0.7 | – | –
1000 kPa | – | 751.4 ± 0.7 | 729.1 ± 0.7 | 704.8 ± 0.7
5000 kPa | – | 756 ± 0.7 | 734.5 ± 0.7 | 711.3 ± 0.7
10000 kPa | – | 761.3 ± 0.7 | 740.8 ± 0.7 | 718.8 ± 0.7
15000 kPa | – | 766.4 ± 0.8 | 746.6 ± 0.8 | 725.6 ± 0.8
20000 kPa | – | 771 ± 0.8 | 751.9 ± 0.8 | 731.7 ± 0.8
25000 kPa | – | 775.4 ± 0.8 | 757 ± 0.8 | 737.4 ± 0.8
30000 kPa | – | 779.5 ± 0.8 | 761.6 ± 0.8 | 742.7 ± 0.8
35000 kPa | – | 783.5 ± 0.8 | 766.1 ± 0.8 | 747.8 ± 0.8
40000 kPa | – | 787.2 ± 0.8 | 770.3 ± 0.8 | 752.5 ± 0.9
45000 kPa | 806.6 ± 0.8 | 790.8 ± 0.8 | 774.4 ± 0.9 | 757 ± 0.9
50000 kPa | 809.8 ± 0.8 | 794.4 ± 0.9 | 778.1 ± 0.9 | 761.2 ± 0.9
55000 kPa | 812.8 ± 0.9 | 797.7 ± 0.9 | 781.8 ± 0.9 | 765.4 ± 0.9
60000 kPa | 815.8 ± 0.9 | 801 ± 0.9 | 785.3 ± 0.9 | 769.2 ± 0.9
65000 kPa | 818.7 ± 0.9 | 804.1 ± 0.9 | 788.8 ± 0.9 | 772.9 ± 1
70000 kPa | 821.4 ± 0.9 | 807.2 ± 0.9 | 792.1 ± 1 | 776.6 ± 1
80000 kPa | 826.8 ± 0.9 | 812.9 ± 1 | 798.4 ± 1 | 783.4 ± 1
90000 kPa | 831.9 ± 1 | 818.3 ± 1 | 804.3 ± 1 | 789.8 ± 1.1
100000 kPa | 836.7 ± 1 | 823.5 ± 1 | 809.8 ± 1.1 | 795.8 ± 1.1
110000 kPa | 841.3 ± 1 | 828.5 ± 1.1 | 815.1 ± 1.1 | 801.5 ± 1.1
120000 kPa | 845.6 ± 1 | 833.1 ± 1.1 | 820.1 ± 1.1 | 806.8 ± 1.2
130000 kPa | 849.9 ± 1.1 | 837.6 ± 1.1 | 824.9 ± 1.2 | 811.9 ± 1.2
140000 kPa | 853.9 ± 1.1 | 842 ± 1.1 | 829.5 ± 1.2 | 816.8 ± 1.2
